Several values for one entry are separate records, joined by “and”; a condition that tells them apart may be missing. Equal values may be shown once.
Legend:
Solubility in water = format: physicochemical
Text: In the development of new drugs, the solubility of drugs is one of the very important factors associated with the bio-absorption rate. […] In addition, drugs with low solubility may crystallize in tissues or cause serious toxicity, and thus, the FDA requires additional research results on oral drugs with low solubility. Furthermore, low solubility may also be the biggest cause of failure in the development of candidate materials.

Nrf2 [1] = assay: Western blot of Nrf2 in nuclear extract of BV2 cells; format: cell-based; details: 0 μM to 10 μM, 6 hours, relative to Lamin B1
Procedure: Through Experimental Example 1, the activation of Nrf2 by the compounds of the present invention was indirectly confirmed. Thus, in order to directly confirm the effect of the compounds of the present invention on Nrf2 activation, Western blot was performed. […] Specifically, BV2 cells were loaded in a 25T flask at a density of 2×10^6 cells/flask in an amount of 4 mL and incubated in RPM1640 medium for 24 hours. […] The thus-incubated cells were recovered, and the nucleus and cytoplasmic extracts were separated. The thus-separated nuclear extract was electrophoresed by 10% SDS-PAGE, transferred to a PVDF membrane, and blocked with bovine serum albumin (BSA). Thereafter, the amount of Nrf2 protein in the nucleus was measured using an anti-Nrf2 antibody, and the results are shown in FIG. 1. The amount of Nrf2 was measured relative to Lamin B1, which refers to the same amount of nuclear extract.

GCLC, GCLM, and HO-1 = assay: Western blot of Nrf2-related antioxidant enzymes in BV2 cells; format: cell-based; details: 0 μM to 10 μM, 24 hours, relative to actin
Text: As a transcription factor, Nrf2 acts to protect cells by increasing antioxidant enzymes in the nucleus. Through preceding Experimental Examples 1 and 6, the activation of Nrf2 by the compound of the present invention was confirmed directly or indirectly. Thus, whether the activated Nrf2 increases antioxidant enzymes was confirmed by measuring the amount of antioxidant enzymes using Western blot. As antioxidant enzymes to be detected, GCLC, GCLM, and HO-1, expression of which is known to increase due to Nrf2, were selected. Specifically, BV2 cells were loaded at a density of 5×10^5 cells/well in a 6-well plate in an amount of 1.5 mL, and incubated in RPM1640 medium for 24 hours. […] The thus-incubated cells were recovered and lysed to extract the total protein, and then subjected to electrophoresis by 10% SDS-PAGE. The total extract subjected to electrophoresis was transferred to a PVDF membrane and then blocked with bovine serum albumin. Thereafter, the amount of antioxidant enzymes expressed in cells was measured using antibodies corresponding to each antioxidant enzyme, and the results are shown in FIG. 2.

[2] = test system: MPTP-induced Parkinson's disease model; assay: Coat-hanger test in MPTP-induced Parkinson's disease mice; format: in vivo, C57/BL6 mice; details: orally 20 mg/mL once a day for 3 days from the day before MPTP; time limit 3 minutes
Procedure: (§1) A specifically designed animal experiment schedule is shown at the top of FIG. 3. […] The MPTP-induced Parkinson's disease model was prepared by injecting 20 mg/kg of MPTP intraperitoneally at 2-hour intervals a total of 4 times in a day. In the negative control group, physiological saline solution containing no MPTP was injected at the same time. In order to confirm whether or not Parkinson's disease was induced, motor impairment caused by dopaminergic neuronal cell death, known as the main symptom of Parkinson's disease, was confirmed by a vertical grid test and a coat-hanger test.
The coat-hanger test, which is another behavioral experiment that evaluates exercise ability, was conducted as follows, as shown in the bottom left of FIG. 3: when the mice were placed in the middle of a hanger 30 cm away from the floor, the mice moved toward a safe position on the top of the hanger while being hanged, and a score was assigned according to the position at the time point with a time limit of 3 minutes. The specific experimental method and the result are shown at the bottom of FIG. 3. As shown in the graph at the bottom of FIG. 3, most of the negative control moved to the top of the hanger, corresponding to 5 points, but in the case of the positive control, 2 to 3 points were recorded because the mice mainly stopped at both ends of the bottom of the hanger.

dopaminergic neurons = assay: Tyrosine hydroxylase immunohistochemical staining of corpus striatum and substantia nigra, MPTP mice; format: in vivo, C57/BL6 mice; details: Compound 15 orally
Text: From the results of Experimental Example 8, the effect of restoring exercise ability by the compound of the present invention was confirmed. In order to confirm whether the recovery of such exercise ability was due to the neuroprotective effect of the compounds of the present invention, brains were excised from mice and analyzed by immunohistochemical staining using tyrosine hydroxylase used as a marker for dopaminergic neurons. As a site for analysis, the corpus striatum and substantia nigra, which are concentrated with dopaminergic neurons, were selected. Specifically, after anesthetizing the mice in the negative control group, the positive control group, and the experimental group with avertin, physiological saline and 4% formaldehyde were injected into the heart, and the brain was excised, which was sequentially immersed in 4% formaldehyde and 30% sucrose, and stored in the refrigerator for one day each. Thereafter, the tissue fragments of the corpus striatum and substantia nigra were obtained from the stored brain using a cryosectioning machine. The brain tissue fragments were stained by DAB staining using a tyrosine hydroxylase antibody, which is specifically expressed in dopaminergic neurons, by immunohistochemical staining, and observed with a microscope, and the results are shown in FIG. 4.

[3] = test system: MPTP-induced Parkinson's disease model; assay: Vertical grid test in MPTP-induced Parkinson's disease mice; format: in vivo, C57/BL6 mice; details: orally 20 mg/mL once a day for 3 days from the day before MPTP; test 6 days after MPTP
Procedure: as §1
The vertical grid test evaluates the time to climb down when an experimental animal model is placed on a vertical ladder. In the present invention, the time to turn towards the floor and the total time taken to climb down from the ladder were measured once the mice were placed on a ladder.

CYP 2C9 = biological target: T1, CYP 2C9 (Homo sapiens, UniProt P11712); assay: Inhibition of CYP activity in human liver microsomes, 2C9; format: in vitro ADME; details: 10 μM compound, human liver microsomes 0.25 mg/mL, % activity relative to the negative control
T1 construct: from tissue; host or cells: human liver microsomes
T1 sequence (P11712 whole entry): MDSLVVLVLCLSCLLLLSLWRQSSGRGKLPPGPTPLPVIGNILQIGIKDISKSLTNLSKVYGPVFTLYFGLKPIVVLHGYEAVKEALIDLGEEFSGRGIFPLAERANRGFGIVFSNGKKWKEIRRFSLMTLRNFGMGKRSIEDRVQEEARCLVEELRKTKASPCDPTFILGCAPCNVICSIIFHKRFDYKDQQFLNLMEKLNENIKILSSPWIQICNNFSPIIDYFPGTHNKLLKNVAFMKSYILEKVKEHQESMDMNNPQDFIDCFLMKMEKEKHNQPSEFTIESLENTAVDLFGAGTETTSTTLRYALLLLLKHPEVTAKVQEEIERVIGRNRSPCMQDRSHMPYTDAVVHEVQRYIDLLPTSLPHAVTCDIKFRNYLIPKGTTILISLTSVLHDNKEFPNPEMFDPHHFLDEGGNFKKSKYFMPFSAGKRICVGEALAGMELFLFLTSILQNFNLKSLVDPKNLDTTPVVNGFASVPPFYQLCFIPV
Procedure: (§2) Thereafter, the reaction was terminated by adding an acetonitrile solution containing an internal standard substrate (terfenadine), followed by centrifugation (14,000 rpm, 4° C.) for 5 minutes. Subsequently, the supernatant was injected into the LC-MS/MS system, and the metabolites of the substrate drugs were simultaneously analyzed to evaluate the inhibitory ability of these compounds on drug metabolic enzymes. The metabolites of each CYP isoenzyme indicator drug generated through the above reaction were analyzed using the Shimadzu Nexera XR system and TSQ vantage (Thermo). A Kinetex C18 column was used as the HPLC column, and distilled water containing 0.1% formic acid and acetonitrile containing 0.1% formic acid were used as the mobile phase. The generated metabolites were quantified using the quantification mode of multiple reaction monitoring (MRM), and data were analyzed with Xcalibur (version 1.6.1).

CYP 3A4 = biological target: T2, CYP 3A4 (Homo sapiens, UniProt P08684); assay: Inhibition of CYP activity in human liver microsomes, 3A4; format: in vitro ADME; details: 10 μM compound, human liver microsomes 0.25 mg/mL; % activity relative to the negative control
T2 construct: from tissue; host or cells: human liver microsomes
T2 sequence (P08684 whole entry): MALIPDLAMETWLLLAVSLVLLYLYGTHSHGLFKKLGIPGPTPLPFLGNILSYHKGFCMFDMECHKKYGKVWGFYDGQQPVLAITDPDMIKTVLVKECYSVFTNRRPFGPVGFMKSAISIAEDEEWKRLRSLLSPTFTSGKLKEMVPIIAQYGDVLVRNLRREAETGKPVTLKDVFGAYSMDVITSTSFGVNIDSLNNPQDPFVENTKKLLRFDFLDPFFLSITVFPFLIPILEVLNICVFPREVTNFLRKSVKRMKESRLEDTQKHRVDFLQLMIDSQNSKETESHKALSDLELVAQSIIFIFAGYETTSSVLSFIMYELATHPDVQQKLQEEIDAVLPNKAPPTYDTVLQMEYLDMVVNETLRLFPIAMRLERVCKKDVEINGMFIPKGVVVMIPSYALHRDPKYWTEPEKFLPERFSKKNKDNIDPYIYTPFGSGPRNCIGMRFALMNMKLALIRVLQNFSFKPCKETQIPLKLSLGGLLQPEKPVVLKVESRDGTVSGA
Procedure: as §2

CYP 2D6 = biological target: T3, CYP 2D6 (Homo sapiens, UniProt P10635); assay: Inhibition of CYP activity in human liver microsomes, 2D6; format: in vitro ADME; details: 10 μM compound, human liver microsomes 0.25 mg/mL; % activity relative to the negative control
T3 construct: from tissue; host or cells: human liver microsomes
T3 sequence (P10635 whole entry): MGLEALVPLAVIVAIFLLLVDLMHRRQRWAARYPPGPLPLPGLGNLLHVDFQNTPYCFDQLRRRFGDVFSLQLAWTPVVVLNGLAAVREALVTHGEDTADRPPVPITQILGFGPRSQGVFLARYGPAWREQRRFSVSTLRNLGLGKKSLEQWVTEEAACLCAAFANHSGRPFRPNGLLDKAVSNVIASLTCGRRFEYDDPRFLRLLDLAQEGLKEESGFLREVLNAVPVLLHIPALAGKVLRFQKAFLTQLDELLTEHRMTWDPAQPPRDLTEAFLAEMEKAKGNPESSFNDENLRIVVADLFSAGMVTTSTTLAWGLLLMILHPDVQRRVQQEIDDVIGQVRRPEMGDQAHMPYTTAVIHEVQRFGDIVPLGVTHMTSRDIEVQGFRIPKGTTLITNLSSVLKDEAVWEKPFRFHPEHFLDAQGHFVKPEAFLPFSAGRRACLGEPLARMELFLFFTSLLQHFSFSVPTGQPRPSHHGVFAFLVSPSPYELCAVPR
Procedure: as §2

[4] = background statement, cited from earlier work
Nrf2 [5] = assay: Nrf2 functional cell-based assay (DisoveRx), luminescence; details: relative to Compound 15
hERG channel = hERG channel (Homo sapiens, UniProt Q12809); assay: hERG channel-binding inhibition (fluorescent tracer polarization); details: hERG channel-containing membrane
Chain of hERG channel (Q12809 whole entry): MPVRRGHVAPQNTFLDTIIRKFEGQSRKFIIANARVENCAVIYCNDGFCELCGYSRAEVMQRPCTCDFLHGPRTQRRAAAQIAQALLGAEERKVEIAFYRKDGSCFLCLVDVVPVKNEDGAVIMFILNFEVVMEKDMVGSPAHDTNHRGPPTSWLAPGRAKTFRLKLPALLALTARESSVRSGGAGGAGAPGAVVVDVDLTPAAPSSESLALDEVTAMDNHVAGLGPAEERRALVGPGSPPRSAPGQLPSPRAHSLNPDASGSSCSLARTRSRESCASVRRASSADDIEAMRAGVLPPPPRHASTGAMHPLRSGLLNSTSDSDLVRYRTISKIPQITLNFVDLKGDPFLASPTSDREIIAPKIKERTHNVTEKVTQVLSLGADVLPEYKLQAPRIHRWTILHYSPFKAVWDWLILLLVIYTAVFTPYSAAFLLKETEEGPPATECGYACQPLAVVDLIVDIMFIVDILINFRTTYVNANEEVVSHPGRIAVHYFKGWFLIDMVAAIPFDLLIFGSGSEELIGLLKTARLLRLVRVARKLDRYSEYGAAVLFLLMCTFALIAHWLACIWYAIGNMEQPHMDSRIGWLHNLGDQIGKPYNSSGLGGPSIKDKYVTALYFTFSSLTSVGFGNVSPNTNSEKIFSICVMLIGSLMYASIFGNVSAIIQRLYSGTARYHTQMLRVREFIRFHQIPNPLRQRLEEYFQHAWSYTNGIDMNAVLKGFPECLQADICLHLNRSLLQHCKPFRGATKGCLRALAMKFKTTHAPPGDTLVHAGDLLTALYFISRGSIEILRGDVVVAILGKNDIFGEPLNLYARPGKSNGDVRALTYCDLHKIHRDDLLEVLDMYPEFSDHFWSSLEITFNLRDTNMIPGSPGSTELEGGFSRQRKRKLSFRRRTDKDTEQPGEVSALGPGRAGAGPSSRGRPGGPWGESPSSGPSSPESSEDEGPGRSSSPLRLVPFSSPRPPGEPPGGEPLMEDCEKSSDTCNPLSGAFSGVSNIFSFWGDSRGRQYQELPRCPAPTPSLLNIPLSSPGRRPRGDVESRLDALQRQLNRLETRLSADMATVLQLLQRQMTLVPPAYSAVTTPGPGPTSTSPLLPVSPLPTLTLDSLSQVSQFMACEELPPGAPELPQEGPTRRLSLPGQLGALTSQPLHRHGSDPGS
Text: The human ether-a-go-go-related gene (hERG) ion channel is an important component of cardiac repolarization, and inhibitors of this channel can induce arrhythmia and sudden death. […] When a fluorescent hERG channel tracer binds to a membrane containing the hERG channel protein, the rotation of the tracer is restricted, thereby maintaining a high polarization state. However, when a competitive inhibitor binds to the hERG channel, the tracer is competitively pushed away from the membrane and depolarized as it loses its direction.

CYP 2C19 = biological target: T4, CYP 2C19 (Homo sapiens, UniProt P33261); assay: Inhibition of CYP activity in human liver microsomes, 2C19; format: in vitro ADME; details: 10 μM compound, human liver microsomes 0.25 mg/mL; % activity relative to the negative control
T4 construct: from tissue; host or cells: human liver microsomes
T4 sequence (P33261 whole entry): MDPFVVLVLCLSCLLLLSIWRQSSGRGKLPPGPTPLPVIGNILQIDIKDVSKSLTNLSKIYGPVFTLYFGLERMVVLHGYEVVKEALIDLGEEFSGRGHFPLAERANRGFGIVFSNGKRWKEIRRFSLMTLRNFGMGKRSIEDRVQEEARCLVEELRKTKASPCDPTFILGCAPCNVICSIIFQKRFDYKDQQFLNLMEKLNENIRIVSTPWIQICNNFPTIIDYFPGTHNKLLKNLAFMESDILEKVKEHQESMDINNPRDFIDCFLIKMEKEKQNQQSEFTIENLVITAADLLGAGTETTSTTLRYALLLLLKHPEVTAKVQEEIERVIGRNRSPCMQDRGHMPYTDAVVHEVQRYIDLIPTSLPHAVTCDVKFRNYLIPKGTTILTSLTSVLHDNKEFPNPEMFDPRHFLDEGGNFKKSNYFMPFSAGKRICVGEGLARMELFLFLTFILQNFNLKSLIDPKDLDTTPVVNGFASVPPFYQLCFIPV
Procedure: as §2

[6] = background statement; cited from earlier work
[7] = background statement; cited from earlier work; remark: listed apart in the source
[8] = when administered into the body

Row | Compound | solubility (Solubility in water) [µg/mL] | Amount of Nrf2 protein in the nucleus (Nrf2 [1]) | Expression of Nrf2 and antioxidant enzymes GCLC, GCLM, and HO-1 (GCLC, GCLM, and HO-1) | Coat-hanger test score, average [2] [points] | Tyrosine hydroxylase staining of corpus striatum and substantia nigra (dopaminergic neurons) | Vertical grid test: time to turn [3] | Vertical grid test: total time to climb down [3] | CYP 2C9 activity (CYP 2C9) [%] | CYP 2C9 activity (CYP 2C9; listed as Comparative Example 1) [%] | CYP 3A4 activity (CYP 3A4) [%] | CYP 2D6 activity (CYP 2D6) [%] | Cardiac toxicity [4] | Bioavailability [4, 8] | Drug metabolic stability [4, 8] | Effect of inducing Nrf2 activity as % of the level of Compound 15 (Nrf2 [5]) | IC50 (hERG channel) | CYP 2C19 activity (CYP 2C19) [%] | Solubility in water (in words) [6] | Time until dissipated when administered into the body [7] [h]
1 | Cl.O=S(=O)(/C=C/c1ncccc1F)c1ccc(OCCCN2CCOCC2)cc1 [Compound 15, (E)-4-(3-(4-(2-(3-fluoropyridin-2-yl)vinylsulfonyl)phenoxy)propyl)morpholine hydrochloride] | ≥ 10000 | promotes the activation of Nrf2 in a concentration-dependent manner | increased the expression of antioxidant enzymes through Nrf2 activation in a concentration-dependent manner | ≥ 4 | the staining became dark again | reduced again to a level similar to that of the negative control group | reduced again to a level similar to that of the negative control group | – | – | – | – | – | – | – | – | – | – | – | –
2 | COc1ccccc1S(=O)(=O)/C=C/c1ccccc1Cl [VSC2, (E)-1-chloro-2-(2-(2-methoxyphenylsulfonyl)vinyl)benzene, reference compound] | ≤ 10 | – | – | – | – | – | – | 100.0 | 100 | 55.6 | 54.9 | cardiac toxicity | low | low | about 60% | 1 µM and 1.2 µM | 16.8 | low | –
3 | C[S+]([O-])CCCCN=C=S (centres unmarked) [SFN (sulforaphane), 1-isothiocyanato-4-methylsulfinylbutane] | – | – | – | – | – | – | – | – | – | – | – | – | – | – | – | – | – | – | ≤ 1
